Results from US9850283B2, “Macrocyclic inhibitors of the PD-1/PD-L1 and CD80(B7-1)/PD-L1 protein/protein interactions” (BRISTOL-MYERS SQUIBB COMPANY, priority 2013, dated 2017).
Where two headings read alike, the source gives them in different places. Positions of bridges follow the written chain, without caps; N, C: chain ends. Non-standard residues stand in square brackets, D forms with d. Residues, ends and D or L forms follow the SMILES beside them. ξ: configuration not given here. Phe(3,4,5-F3) = N[C@@H](Cc1cc(F)c(F)c(F)c1)C(=O)O; Phe(4-CH2NH2) = NCc1ccc(C[C@H](N)C(=O)O)cc1; Bta = N[C@@H](Cc1csc2ccccc12)C(=O)O; Hyp = O=C(O)[C@@H]1C[C@@H](O)CN1; NMeF = CN[C@@H](Cc1ccccc1)C(=O)O; NMeNle = CCCC[C@H](NC)C(=O)O; NMeM = CN[C@@H](CCSC)C(=O)O; NMeS = CN[C@@H](CO)C(=O)O; NMeA = CN[C@@H](C)C(=O)O; Dab = NCC[C@H](N)C(=O)O; Dap = NC[C@H](N)C(=O)O; ξP = O=C(O)C1CCCN1; ξC = NC(CS)C(=O)O; Sar = CNCC(=O)O

Columns and labels:
[1] = molecular target: T1, Human PD-L1/PD-1 (Homo sapiens, UniProt Q9NZQ7); assay: HTRF PD-1-Ig/PD-L1-His binding assay (human PD-L1); conditions: cluster symbol; read-out: HTRF IC50 cluster
T1 construct: made in house; host or cells: HEK293T
T1 sequence (Q9NZQ7 with tags, fused parts or gaps): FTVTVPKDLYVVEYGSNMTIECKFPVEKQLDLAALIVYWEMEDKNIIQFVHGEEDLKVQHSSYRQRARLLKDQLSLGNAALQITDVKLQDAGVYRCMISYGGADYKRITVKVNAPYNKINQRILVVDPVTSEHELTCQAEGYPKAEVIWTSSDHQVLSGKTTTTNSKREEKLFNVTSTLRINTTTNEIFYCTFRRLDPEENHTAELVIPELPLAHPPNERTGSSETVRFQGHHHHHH
Procedure, shortened: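 HTRF read-out: Eu cryptate anti-Ig mAb 1 nM final, APC anti-His mAb 20 nM final, added over the binding reaction. Proteins were PD-1-Ig and PD-L1-His ectodomain fusions. Buffer was dPBS, 0.1% BSA, 0.05% Tween-20.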

[2] = molecular target: T2, LK35.2-hPD-L1 cells / PE-labeled PD-1-Ig (Homo sapiens, UniProt Q9NZQ7); assay: LK35.2-hPD-L1 cell binding high-content screening assay; type: cell-based; conditions: cluster symbol, read-out: CBA IC50 cluster
T2 construct: expressed in transfected cells; host or cells: LK35.2 mouse B cell line
T2 sequence (Q9NZQ7 19-290): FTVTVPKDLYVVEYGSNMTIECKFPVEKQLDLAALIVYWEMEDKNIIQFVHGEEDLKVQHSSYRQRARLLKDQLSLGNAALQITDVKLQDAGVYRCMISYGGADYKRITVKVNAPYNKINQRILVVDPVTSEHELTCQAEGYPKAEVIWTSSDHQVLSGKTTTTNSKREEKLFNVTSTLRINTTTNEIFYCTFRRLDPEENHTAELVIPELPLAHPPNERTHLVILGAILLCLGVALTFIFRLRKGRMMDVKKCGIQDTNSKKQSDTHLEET
Procedure, shortened: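 Mouse LK35.2 B cells stably overexpressing human PD-L1 were cultured overnight in RPMI with 10% FCS, then given compound and PE-labeled human PD-1-Ig (1 nM final) for 1 h at 37 °C. After three dPBS washes, bound fluorescence was quantified by high-content imaging.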

[3] = cell binding assay, cell line not given
[4] = cell line of CBA not given (LK35.2-hPD-L1 or 293T-hPD-L1)

Row | Compound | IC50 [1] | IC50 [2, 3] | IC50 [2, 4]
1 | CCCC[C@H]1C(=O)N(C)CC(=O)N[C@@H](CC(=O)O)C(=O)N[C@@H](Cc2ccc(O)cc2)C(=O)N(C)[C@@H](Cc2ccccc2)C(=O)N[C@@H](Cc2ccc(O)cc2)C(=O)N(C)CC(=O)N[C@@H](Cc2c[nH]c3ccccc23)C(=O)N[C@@H](Cc2ccc(O)cc2)C(=O)N[C@@H](CC(C)C)C(=O)N[C@H](C(=O)NCC(N)=O)CSCC(=O)N[C@@H](Cc2ccccc2)C(=O)N(C)[C@@H](Cc2ccccc2)C(=O)N1C [Example 3503] (HELM PEPTIDE1{[O=C(C[*:3])[*:2]].F.[meF].[CCCC[C@@H](C(=O)[*:2])N(C)[*:1]].[Sar].D.Y.[meF].Y.[Sar].W.Y.L.C.G.[am]}$PEPTIDE1,PEPTIDE1,1:R3-14:R3$$$V2.0) | > 30.5 nM | > 74.3 nM | –
2 | CCCC[C@H]1C(=O)N(C)[C@@H](CCCC)C(=O)N[C@@H](CCN)C(=O)N[C@H](C(=O)NCC(N)=O)CSCC(=O)N[C@@H](Cc2ccc(O)cc2)C(=O)N(C)[C@@H](C)C(=O)N[C@@H](CCN)C(=O)N2CCC[C@H]2C(=O)N[C@@H](Cc2c[nH]cn2)C(=O)N[C@@H](CCC(=O)O)C(=O)N2C[C@H](O)C[C@H]2C(=O)N[C@@H](Cc2c[nH]c3ccccc23)C(=O)N[C@@H](CCN)C(=O)N[C@@H](Cc2c[nH]c3ccccc23)C(=O)N1C [Example 5104] ({CH2CO}-Y[NMeA][Dab]PHE[Hyp]W[Dab]W[NMeNle][NMeNle][Dab]CG-NH2; thioether N-14) | 0.385 to 6.74 nM | 0.158 to 4.71 nM | –
3 | CCCC[C@H]1C(=O)N2CCC[C@@H]2C(=O)N[C@@H](CC(N)=O)C(=O)N[C@@H](C(C)C)C(=O)N(C)[C@@H](Cc2ccccc2)C(=O)N[C@@H](Cc2ccc(CN)cc2)C(=O)N2CCC[C@@H]2C(=O)N[C@@H](Cc2c[nH]c3ccccc23)C(=O)N[C@@H](Cc2ccc(O)cc2)C(=O)N[C@@H](CCCCN)C(=O)N[C@H](C(=O)NCC(N)=O)CSCC(=O)N[C@@H](Cc2cc(F)c(F)c(F)c2)C(=O)N(C)[C@@H](Cc2ccccc2)C(=O)N1C [Example 3198] ({CH2CO}-[Phe(3,4,5-F3)][NMeF][NMeNle][dP]NV[NMeF][Phe(4-CH2NH2)][dP]WYKCG-NH2; thioether N-13) | 6.76 to 30.3 nM | – | 0.158 to 4.71 nM
4 | CCCC[C@H]1C(=O)N(C)[C@@H](CCCC)C(=O)N[C@@H](CC(=O)O)C(=O)N[C@H](C(=O)NCC(N)=O)CSCC(=O)N[C@@H](Cc2ccc(O)cc2)C(=O)N(C)[C@@H](C)C(=O)N[C@@H](CC(=O)O)C(=O)N2CCC[C@H]2C(=O)N[C@@H](Cc2c[nH]cn2)C(=O)N[C@@H](CCCNC(=N)N)C(=O)N2CCCC2C(=O)N[C@@H](Cc2c[nH]c3ccccc23)C(=O)N[C@@H](CCCNC(=N)N)C(=O)N[C@@H](Cc2c[nH]c3ccccc23)C(=O)N1C (some centres unmarked) [Example 1201] ({CH2CO}-Y[NMeA]DPHR[ξP]WRW[NMeNle][NMeNle]DCG-NH2; thioether N-14) | 6.76 to 30.3 nM | – | 4.78 to 72.9 nM
5 | CCCC[C@H]1C(=O)N(C)[C@@H](CCSC)C(=O)N[C@@H](C)C(=O)NC(C(=O)NCC(N)=O)CSCC(=O)N[C@@H](Cc2ccc(O)cc2)C(=O)N(C)[C@@H](C)C(=O)N[C@@H](CC(N)=O)C(=O)N2CCC[C@H]2C(=O)N[C@@H](CN)C(=O)N[C@@H](CC(C)C)C(=O)N2CCC[C@H]2C(=O)N[C@@H](Cc2c[nH]c3ccccc23)C(=O)N[C@@H](CO)C(=O)N[C@@H](Cc2c[nH]c3ccccc23)C(=O)N1C (some centres unmarked) [Example 9085] ({CH2CO}-Y[NMeA]NP[Dap]LPWSW[NMeNle][NMeM]A[ξC]G-NH2; thioether N-14) | 0.385 to 6.74 nM | 4.78 to 72.9 nM | –
6 | CCCC[C@H]1C(=O)N(C)[C@@H](CO)C(=O)N[C@@H](CCCNC(=N)N)C(=O)NC(C(=O)NCC(N)=O)CSCC(=O)N[C@@H](Cc2ccc(O)cc2)C(=O)N(C)[C@@H](C)C(=O)N[C@@H](CC(N)=O)C(=O)N2CCC[C@H]2C(=O)N[C@@H](Cc2cnc[nH]2)C(=O)N[C@@H](CC(C)C)C(=O)N2C[C@H](O)C[C@H]2C(=O)N[C@@H](Cc2c[nH]c3ccccc23)C(=O)N[C@@H](CO)C(=O)N[C@@H](Cc2csc3ccccc23)C(=O)N1C (some centres unmarked) [Example 9033] ({CH2CO}-Y[NMeA]NPHL[Hyp]WS[Bta][NMeNle][NMeS]R[ξC]G-NH2; thioether N-14) | 6.76 to 30.3 nM | 0.158 to 4.71 nM | –
7 | CCCC[C@H]1C(=O)N(C)CC(=O)N[C@@H](CC(=O)O)C(=O)N[C@@H](C(C)C)C(=O)N(C)[C@@H](Cc2ccccc2)C(=O)N[C@@H](Cc2ccc(CN)cc2)C(=O)N(C)CC(=O)N[C@@H](Cc2csc3ccccc23)C(=O)N[C@@H](Cc2ccc(O)cc2)C(=O)N[C@@H](CC(C)C)C(=O)N[C@H](C(=O)NCC(N)=O)CSCC(=O)N[C@@H](Cc2ccccc2)C(=O)N(C)[C@@H](Cc2ccccc2)C(=O)N1C [Example 3141] ({CH2CO}-F[NMeF][NMeNle][Sar]DV[NMeF][Phe(4-CH2NH2)][Sar][Bta]YLCG-NH2; thioether N-13) | 6.76 to 30.3 nM | – | 4.78 to 72.9 nM
